Measured values reported in paper PMC9120017, “Inhibition mechanism of the chloride channel TMEM16A by the pore blocker 1PBC” (Nature Communications, 2022).
Where two headings read alike, the source gives them in different places.

Molecular target: T1, wild-type mouse TMEM16A (Mus musculus, UniProt Q8BHY3)
T1 construct: expressed in transfected cells; host or cells: HEK293T
T1 sequence (Q8BHY3 1-960): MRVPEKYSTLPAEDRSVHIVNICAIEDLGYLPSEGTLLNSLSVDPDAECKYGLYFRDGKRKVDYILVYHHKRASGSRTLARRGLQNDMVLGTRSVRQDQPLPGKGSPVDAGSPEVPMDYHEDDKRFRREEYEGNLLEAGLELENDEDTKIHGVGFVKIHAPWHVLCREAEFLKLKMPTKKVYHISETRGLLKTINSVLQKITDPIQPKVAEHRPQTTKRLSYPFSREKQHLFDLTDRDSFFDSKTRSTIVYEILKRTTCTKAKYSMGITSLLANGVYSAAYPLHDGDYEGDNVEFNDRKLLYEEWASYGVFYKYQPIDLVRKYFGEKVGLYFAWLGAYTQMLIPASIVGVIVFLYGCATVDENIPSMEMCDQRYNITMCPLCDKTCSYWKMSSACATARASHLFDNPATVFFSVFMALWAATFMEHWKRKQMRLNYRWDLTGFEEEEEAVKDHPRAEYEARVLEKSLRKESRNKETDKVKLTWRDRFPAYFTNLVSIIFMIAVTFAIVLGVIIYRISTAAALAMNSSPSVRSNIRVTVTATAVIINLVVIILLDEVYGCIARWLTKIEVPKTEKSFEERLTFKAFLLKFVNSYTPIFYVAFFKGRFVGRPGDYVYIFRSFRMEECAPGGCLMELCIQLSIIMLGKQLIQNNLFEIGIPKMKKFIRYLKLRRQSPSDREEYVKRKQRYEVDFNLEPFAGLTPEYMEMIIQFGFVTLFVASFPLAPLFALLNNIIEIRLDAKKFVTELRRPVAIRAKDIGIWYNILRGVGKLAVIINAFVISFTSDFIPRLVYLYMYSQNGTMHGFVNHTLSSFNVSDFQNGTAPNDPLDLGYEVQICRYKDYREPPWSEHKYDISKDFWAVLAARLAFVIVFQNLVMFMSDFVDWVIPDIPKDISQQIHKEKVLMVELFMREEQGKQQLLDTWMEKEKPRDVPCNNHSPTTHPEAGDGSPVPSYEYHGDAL
Experiment: Inside-out patch recording of 1PBC block, wild-type TMEM16A
Format: cell-based
Settings: for remaining activity at 3 µM / remaining activity at 10 µM: read-out: I/Imax
Description: HEK293T cells (ATCC CRL-1573) were maintained in Dulbecco’s modified Eagle’s medium (DMEM; Sigma-Aldrich) supplemented with 10 U ml^−1 penicillin, 0.1 mg ml^−1 streptomycin (Sigma-Aldrich), 2 mM L-glutamine (Sigma-Aldrich), and 10% FBS (Sigma-Aldrich) in a humidified atmosphere containing 5% CO2 at 37 °C. HEK293S GnTI^− cells (ATCC CRL-3022) were maintained in HyClone HyCell TransFx-H medium (GE Healthcare) supplemented with 10 U ml^−1 penicillin, 0.1 mg ml^−1 streptomycin, 4 mM L-glutamine, 0.15% poloxamer 188 (Sigma-Aldrich), and 1% FBS in an atmosphere containing 5% CO2 at 185 rpm at 37 °C. The ac splice variant of mouse TMEM16A (UniProt ID: Q8BHY3), mouse TMEM16B (UniProt ID: Q8CFW1), or mouse TMEM16F (UniProt ID: Q6P9J9) bearing a 3C cleavage site, a Venus YFP, a Myc tag, and a Streptavidin-binding peptide (SBP) downstream of the open reading frame in a modified pcDNA3.1 vector (Invitrogen) were used as described previously[21],[31]. Mutations were introduced using a modified QuikChange method[58] and were verified by sequencing.
HEK293T cells were transfected with 3–4 μg DNA per 6 cm Petri dish using the calcium phosphate co-precipitation method and were used within 24–96 h after transfection. Recordings were performed on inside-out patches excised from HEK293T cells expressing the construct of interest. Patch pipettes were pulled from borosilicate glass capillaries (O.D. 1.5 mm, I.D. 0.86 mm, Sutter Instrument) and were fire-polished with a microforge (Narishige) before use. Pipette resistance was typically 3–8 MΩ when filled with the recording solutions detailed below. Seal resistance was typically 4 GΩ or higher. Voltage-clamp recordings were made using Axopatch 200B, Digidata 1550, and Clampex 10.7 (Molecular Devices). Analog signals were filtered with the in-built 4-pole Bessel filter at 10 kHz and were digitized at 20 kHz. Solution exchange was achieved using a gravity-fed system through a theta glass pipette mounted on an ultra-fast piezo-driven stepper (Siskiyou). […] All recordings were performed at 20 °C.
A symmetrical ionic condition was used throughout. Stock solution with Ca^2+-EGTA contained 150 mM NaCl, 5.99 mM Ca(OH)2, 5 mM EGTA, and 10 mM HEPES at pH 7.40. Stock solution with EGTA contained 150 mM NaCl, 5 mM EGTA, and 10 mM HEPES at pH 7.40. Free Ca^2+ concentrations were adjusted by mixing the stock solutions at the required ratios calculated using the WEBMAXC program (http://web.stanford.edu/~cpatton/webmaxcS.htm). Patch pipettes were filled with the stock solution with Ca^2+-EGTA, which has a free Ca^2+ concentration of 1 mM. 1PBC (ChemBridge) stock was reconstituted in anhydrous DMSO (Sigma-Aldrich) at 100 mM and stored at −20 °C. Working solutions with 1PBC were prepared by serial dilution. Unless otherwise stated, experiments were performed at a saturating Ca^2+ concentration as shown in Supplementary Table 1 and the primary data were corrected for current rundown as described previously[21],[25].
Concentration-response relations, obtained from the ratio of the I-V plots before and after the application of the blocker, were fitted to the Hill equation,1 I/Imax=1/1+IC50/[blocker]^h where I/Imax is the normalized current responses, IC50 defines the concentration at which inhibition is at its half-maximum, and h is the Hill coefficient.

- Steady-state current (normalized) (3 µM 1PBC, 60 mV, 2 µM Ca2+): 0.2233
- remaining activity at 3 µM (3 µM 1PBC, 60 mV, 2 µM Ca2+): 40.5%
- Steady-state current (normalized) (3 µM 1PBC, 80 mV, 2 µM Ca2+): 0.2697
- remaining activity at 3 µM (3 µM 1PBC, 80 mV, 2 µM Ca2+): 38.1%
- Steady-state current (normalized) (3 µM 1PBC, 100 mV, 2 µM Ca2+): 0.3173
- remaining activity at 3 µM (3 µM 1PBC, 100 mV, 2 µM Ca2+): 37.3%
- Steady-state current (normalized) (3 µM 1PBC, 120 mV, 2 µM Ca2+): 0.3753
- remaining activity at 3 µM (3 µM 1PBC, 120 mV, 2 µM Ca2+): 38.6%
- Steady-state current (normalized) (3 µM 1PBC, 140 mV, 2 µM Ca2+): 0.4543
- remaining activity at 3 µM (3 µM 1PBC, 140 mV, 2 µM Ca2+): 41.8%
- Steady-state current (normalized) (3 µM 1PBC, -20 mV, 2 µM Ca2+): -0.1133
- remaining activity at 3 µM (3 µM 1PBC, -20 mV, 2 µM Ca2+): 58.9%
- Steady-state current (normalized) (3 µM 1PBC, -40 mV, 2 µM Ca2+): -0.2482
- remaining activity at 3 µM (3 µM 1PBC, -40 mV, 2 µM Ca2+): 63.9%
- Steady-state current (normalized) (3 µM 1PBC, -60 mV, 2 µM Ca2+): -0.3977
- remaining activity at 3 µM (3 µM 1PBC, -60 mV, 2 µM Ca2+): 68.6%
- Steady-state current (normalized) (3 µM 1PBC, -80 mV, 2 µM Ca2+): -0.557
- remaining activity at 3 µM (3 µM 1PBC, -80 mV, 2 µM Ca2+): 72.6%
- Steady-state current (normalized) (3 µM 1PBC, -100 mV, 2 µM Ca2+): -0.718
- remaining activity at 3 µM (3 µM 1PBC, -100 mV, 2 µM Ca2+): 75.6%
- Steady-state current (normalized) (3 µM 1PBC, -120 mV, 2 µM Ca2+): -0.8735
- remaining activity at 3 µM (3 µM 1PBC, -120 mV, 2 µM Ca2+): 78.1%
- Steady-state current (normalized) (3 µM 1PBC, -140 mV, 2 µM Ca2+): -1.031
- remaining activity at 3 µM (3 µM 1PBC, -140 mV, 2 µM Ca2+): 80.3%
- Steady-state current (normalized) (10 µM 1PBC, 0 mV, 2 µM Ca2+): 0.0007397
- remaining activity at 10 µM (10 µM 1PBC, 0 mV, 2 µM Ca2+): 30.3%
- I/Imax scaled to open probability (10 µM 1PBC, 400 nM Ca2+, 80 mV): 0.1226
- I/Imax scaled to open probability (10 µM 1PBC, 800 nM Ca2+, 80 mV): 0.1094
- I/Imax scaled to open probability (10 µM 1PBC, 2 µM Ca2+, 80 mV): 0.1474
- Steady-state current (normalized) (10 µM 1PBC, 20 mV, 2 µM Ca2+): 0.04925
- remaining activity at 10 µM (10 µM 1PBC, 20 mV, 2 µM Ca2+): 25.3%
- Steady-state current (normalized) (10 µM 1PBC, 40 mV, 2 µM Ca2+): 0.08188
- remaining activity at 10 µM (10 µM 1PBC, 40 mV, 2 µM Ca2+): 21.7%
- Steady-state current (normalized) (10 µM 1PBC, 60 mV, 2 µM Ca2+): 0.1024
- remaining activity at 10 µM (10 µM 1PBC, 60 mV, 2 µM Ca2+): 18.6%
- Steady-state current (normalized) (10 µM 1PBC, 80 mV, 2 µM Ca2+): 0.1202
- remaining activity at 10 µM (10 µM 1PBC, 80 mV, 2 µM Ca2+): 17%
- Steady-state current (normalized) (10 µM 1PBC, 100 mV, 2 µM Ca2+): 0.1383
- remaining activity at 10 µM (10 µM 1PBC, 100 mV, 2 µM Ca2+): 16.3%
- Steady-state current (normalized) (10 µM 1PBC, 120 mV, 2 µM Ca2+): 0.1588
- remaining activity at 10 µM (10 µM 1PBC, 120 mV, 2 µM Ca2+): 16.3%
- Steady-state current (normalized) (10 µM 1PBC, 140 mV, 2 µM Ca2+): 0.1862
- remaining activity at 10 µM (10 µM 1PBC, 140 mV, 2 µM Ca2+): 17.1%
- Steady-state current (normalized) (10 µM 1PBC, -20 mV, 2 µM Ca2+): -0.06795
- remaining activity at 10 µM (10 µM 1PBC, -20 mV, 2 µM Ca2+): 35.3%
- Steady-state current (normalized) (10 µM 1PBC, -40 mV, 2 µM Ca2+): -0.1586
- remaining activity at 10 µM (10 µM 1PBC, -40 mV, 2 µM Ca2+): 40.9%
SMILES: N#Cc1c(C(F)(F)F)cc(O)n2c1nc1ccccc12 [1PBC]
